Activity calls are given as the source filed them. No cut-off for these calls is given here.
How the values were obtained:
HCT-116 [1] = assay: Induction of cell cycle arrest in human HCT-116 cells assessed as accumulation of cells at G0/G1 phase at 1.25 mM incubated for 48 hrs by PI staining based flow cytometric analysis (reference value: 74.6 %); assay type: functional
HCT-116 [2] = assay: Cytotoxicity against human HCT-116 cells assessed as reduction in cell viability at 10 mM incubated for 72 hrs by MTT assay (reference value: 100%); assay type: functional
HCT-116 [3] = assay: Induction of apoptosis in human HCT-116 cells assessed as viable cells at 10 mM incubated for 48 hrs by Annexin V-FITC/PI staining based flow cytometric analysis (reference value: 42.5 %); assay type: functional; conditions: HCT-116, 48 h, read-out: Activity
HCT-116 [4] = assay: Induction of apoptosis in human HCT-116 cells assessed as increase in apoptotic rate at 2.5 mM incubated for 48 hrs by Annexin V-FITC/PI staining based flow cytometric analysis relative to control; assay type: functional
HCT-116 [5] = assay: Induction of apoptosis in human HCT-116 cells assessed as late apoptotic cells at 10 mM incubated for 48 hrs by Annexin V-FITC/PI staining based flow cytometric analysis (reference value: 2.13 %); assay type: functional
HCT-116 [6] = assay: Induction of cell cycle arrest in human HCT-116 cells assessed as accumulation of cells at G0/G1 phase at 5 mM incubated for 48 hrs by PI staining based flow cytometric analysis (reference value: 74.6 %); assay type: functional
HCT-116 [7] = assay: Induction of apoptosis in human HCT-116 cells assessed as increase in apoptotic rate at 1.25 mM incubated for 48 hrs by Annexin V-FITC/PI staining based flow cytometric analysis relative to control; assay type: functional
HCT-116 [8] = assay: Induction of cell cycle arrest in human HCT-116 cells assessed as accumulation of cells at G2/M phase at 5 mM incubated for 48 hrs by PI staining based flow cytometric analysis (reference value: 14 %); assay type: functional
HCT-116 [9] = assay: Induction of apoptosis in human HCT-116 cells assessed as necrotic cells at 5 mM incubated for 48 hrs by Annexin V-FITC/PI staining based flow cytometric analysis (reference value: 0.16 %); assay type: functional
HCT-116 [10] = assay: Cytotoxicity against human HCT-116 cells assessed as reduction in ATP level incubated for 24 to 72 hrs by CellTiter-Glo assay; assay type: functional, cell-based; conditions: dose 0.25-10 mM, time 24-72 hrs
HCT-116 [11] = assay: Induction of morphological changes in human HCT-116 cells assessed as appearance of disorganized cell layers at 2.5 to 10 mM incubated for 24 to 72 hrs by inverted microscopic analysis; assay type: functional, cell-based; conditions: dose 2.5-10 mM, time 24-72 hrs
HCT-116 [12] = assay: Induction of morphological changes in human HCT-116 cells assessed as appearance of lobules at 2.5 to 10 mM incubated for 24 to 72 hrs by inverted microscopic analysis; assay type: functional, cell-based; conditions: dose 2.5-10 mM, time 24-72 hrs
CCD-841CoN [13] = assay: Cytotoxicity against human CCD-841CoN cells at 10 mM incubated for 72 hrs by MTT assay; assay type: toxicity, cell-based; conditions: 10000 µM
CCD-841CoN [14] = assay: Cytotoxicity against human CCD-841CoN cells at 0.25 to 10 mM incubated for 24 to 48 hrs by MTT assay; assay type: toxicity, cell-based; conditions: 10000 µM, dose lower 0.25 mM, time lower 24 hrs, dose upper 10 mM, time upper 48 hrs
HCT-116 [15] = assay: Induction of apoptosis in human HCT-116 cells assessed as viable cells at 5 mM incubated for 48 hrs by Annexin V-FITC/PI staining based flow cytometric analysis (reference value: 42.5 %); assay type: functional; conditions: HCT-116, 48 h, read-out: Activity
HCT-116 [16] = assay: Induction of cell cycle arrest in human HCT-116 cells assessed as accumulation of cells at G2/M phase at 1.25 mM incubated for 48 hrs by PI staining based flow cytometric analysis (reference value: 14 %); assay type: functional
HCT-116 [17] = assay: Cytotoxicity against human HCT-116 cells assessed as reduction in cell viability at 10 mM incubated for 24 hrs by MTT assay (reference value: 100%); assay type: functional
HCT-116 [18] = assay: Induction of apoptosis in human HCT-116 cells assessed as late apoptotic cells at 1.25 mM incubated for 48 hrs by Annexin V-FITC/PI staining based flow cytometric analysis (reference value: 2.13 %); assay type: functional
HCT-116 [19] = assay: Cytotoxicity against human HCT-116 cells assessed as reduction in cell viability at 10 mM incubated for 48 hrs by MTT assay (reference value: 100%); assay type: functional
HCT-116 [20] = assay: Induction of apoptosis in human HCT-116 cells assessed as increase in apoptotic rate at 5 mM incubated for 48 hrs by Annexin V-FITC/PI staining based flow cytometric analysis relative to control; assay type: functional
HCT-116 [21] = assay: Induction of cell cycle arrest in human HCT-116 cells assessed as accumulation of cells at G0/G1 phase at 10 mM incubated for 48 hrs by PI staining based flow cytometric analysis (reference value: 74.6 %); assay type: functional
HCT-116 [22] = assay: Induction of apoptosis in human HCT-116 cells assessed as increase in apoptotic rate at 10 mM incubated for 48 hrs by Annexin V-FITC/PI staining based flow cytometric analysis relative to control; assay type: functional
HCT-116 [23] = assay: Induction of morphological changes in human HCT-116 cells assessed as appearance of freely floating cells at 10 mM incubated for 24 to 72 hrs by inverted microscopic analysis; assay type: functional, cell-based; conditions: time 24-72 hrs
HCT-116 [24] = assay: Induction of apoptosis in human HCT-116 cells assessed as viable cells at 2.5 mM incubated for 48 hrs by Annexin V-FITC/PI staining based flow cytometric analysis (reference value: 42.5 %); assay type: functional; conditions: HCT-116, 48 h, read-out: Activity
HCT-116 [25] = assay: Induction of ROS generation in human HCT-116 cells assessed as increase in superoxide anion at 1.25 to 10 mM incubated for 48 hrs by DHE fluorescence based analysis; assay type: functional, cell-based; conditions: dose 1.25-10 mM
HCT-116 [26] = assay: Induction of morphological changes in human HCT-116 cells assessed as rounding of cells at 2.5 to 10 mM incubated for 24 to 72 hrs by inverted microscopic analysis; assay type: functional, cell-based; conditions: dose 2.5-10 mM, time 24-72 hrs
HCT-116 [27] = assay: Induction of apoptosis in human HCT-116 cells assessed as late apoptotic cells at 5 mM incubated for 48 hrs by Annexin V-FITC/PI staining based flow cytometric analysis (reference value: 2.13 %); assay type: functional
HCT-116 [28] = assay: Induction of cell cycle arrest in human HCT-116 cells assessed as accumulation of cells at S phase at 1.25 mM incubated for 48 hrs by PI staining based flow cytometric analysis (reference value: 10 %); assay type: functional
HCT-116 [29] = assay: Induction of cell cycle arrest in human HCT-116 cells assessed as accumulation of cells at G2/M phase at 10 mM incubated for 48 hrs by PI staining based flow cytometric analysis (reference value: 14 %); assay type: functional
HCT-116 [30] = assay: Induction of apoptosis in human HCT-116 cells assessed as necrotic cells at 10 mM incubated for 48 hrs by Annexin V-FITC/PI staining based flow cytometric analysis (reference value: 0.16 %); assay type: functional
HCT-116 [31] = assay: Inhibition of colony formation in human HCT-116 cells at 0.25 to 10 mM incubated for 10 days by crystal violet staining based analysis; assay type: functional, cell-based; conditions: dose 0.25-10 mM, time 10.0 day
HCT-116 [32] = assay: Induction of cell cycle arrest in human HCT-116 cells assessed as accumulation of cells at S phase at 10 mM incubated for 48 hrs by PI staining based flow cytometric analysis (reference value: 10 %); assay type: functional
HCT-116 [33] = assay: Induction of apoptosis in human HCT-116 cells assessed as necrotic cells at 2.5 mM incubated for 48 hrs by Annexin V-FITC/PI staining based flow cytometric analysis (reference value: 0.16 %); assay type: functional
HCT-116 [34] = assay: Induction of apoptosis in human HCT-116 cells assessed as early apoptotic cells at 5 mM incubated for 48 hrs by Annexin V-FITC/PI staining based flow cytometric analysis (reference value: 55.2 %); assay type: functional
HCT-116 [35] = assay: Cytotoxicity against human HCT-116 cells assessed as reduction in ATP level at 0.25 to 10 mM by CellTiter-Glo assay; assay type: functional, cell-based; conditions: dose 0.25-10 mM, time 24-72 hrs
HCT-116 [36] = assay: Induction of cell cycle arrest in human HCT-116 cells assessed as accumulation of cells at S phase at 2.5 mM incubated for 48 hrs by PI staining based flow cytometric analysis (reference value: 10 %); assay type: functional
HCT-116 [37] = assay: Induction of cell cycle arrest in human HCT-116 cells assessed as accumulation of cells at S phase at 5 mM incubated for 48 hrs by PI staining based flow cytometric analysis (reference value: 10 %); assay type: functional
HCT-116 [38] = assay: Induction of morphological changes in human HCT-116 cells assessed as change in cell shape at 2.5 to 10 mM incubated for 24 to 72 hrs by inverted microscopic analysis; assay type: functional, cell-based; conditions: dose 2.5-10 mM, time 24-72 hrs
HCT-116 [39] = assay: Induction of cell cycle arrest in human HCT-116 cells assessed as accumulation of cells at G2/M phase at 2.5 mM incubated for 48 hrs by PI staining based flow cytometric analysis (reference value: 14 %); assay type: functional
HCT-116 [40] = assay: Induction of apoptosis in human HCT-116 cells assessed as early apoptotic cells at 1.25 mM incubated for 48 hrs by Annexin V-FITC/PI staining based flow cytometric analysis (reference value: 55.2 %); assay type: functional
HCT-116 [41] = assay: Induction of cell cycle arrest in human HCT-116 cells assessed as accumulation of cells at G0/G1 phase at 2.5 mM incubated for 48 hrs by PI staining based flow cytometric analysis (reference value: 74.6 %); assay type: functional
HCT-116 [42] = assay: Induction of apoptosis in human HCT-116 cells assessed as viable cells at 1.25 mM incubated for 48 hrs by Annexin V-FITC/PI staining based flow cytometric analysis (reference value: 42.5 %); assay type: functional; conditions: HCT-116, 48 h, read-out: Activity
HCT-116 [43] = assay: Induction of apoptosis in human HCT-116 cells assessed as early apoptotic cells at 2.5 mM incubated for 48 hrs by Annexin V-FITC/PI staining based flow cytometric analysis (reference value: 55.2 %); assay type: functional
HCT-116 [44] = assay: Induction of morphological changes in human HCT-116 cells assessed as blebbing of cells at 2.5 to 10 mM incubated for 24 to 72 hrs by inverted microscopic analysis; assay type: functional, cell-based; conditions: dose 2.5-10 mM, time 24-72 hrs
HCT-116 [45] = assay: Induction of apoptosis in human HCT-116 cells assessed as necrotic cells at 1.25 mM incubated for 48 hrs by Annexin V-FITC/PI staining based flow cytometric analysis (reference value: 0.16 %); assay type: functional
HCT-116 [46] = assay: Induction of apoptosis in human HCT-116 cells assessed as increase in Bax/Bcl2 ratio incubated for 48 hrs by Western blotting analysis; assay type: functional, cell-based; conditions: dose 2.5-5 mM
HCT-116 [47] = assay: Induction of apoptosis in human HCT-116 cells assessed as late apoptotic cells at 2.5 mM incubated for 48 hrs by Annexin V-FITC/PI staining based flow cytometric analysis (reference value: 2.13 %); assay type: functional
HCT-116 [48] = assay: Induction of morphological changes in human HCT-116 cells assessed as rupture of plasma membrane at 2.5 to 10 mM incubated for 24 to 72 hrs by inverted microscopic analysis; assay type: functional, cell-based; conditions: dose 2.5-10 mM, time 24-72 hrs
HCT-116 [49] = assay: Induction of apoptosis in human HCT-116 cells assessed as early apoptotic cells at 10 mM incubated for 48 hrs by Annexin V-FITC/PI staining based flow cytometric analysis (reference value: 55.2 %); assay type: functional

SMILES: CCc1ccc(OS(=O)(=O)O)cc1
- Activity (HCT-116 [1]): 70.8%
- Activity (HCT-116 [2]): 7%
- viability at 10000 µM (HCT-116 [3]): 0.84%
- Activity (HCT-116 [4]): 73%
- Activity (HCT-116 [5]): 50.8%
- Activity (HCT-116 [6]): 59.6%
- Activity (HCT-116 [7]): 52%
- Activity (HCT-116 [8]): 29.8%
- Activity (HCT-116 [9]): 0.076%
- Activity (HCT-116 [10]): Dose-dependent-effect
- Activity (HCT-116 [11]): Active
- Activity (HCT-116 [12]): Active
- Activity (CCD-841CoN [13]): Non-toxic
- Activity (CCD-841CoN [14]): Non-toxic
- viability at 5000 µM (HCT-116 [15]): 8.22%
- Activity (HCT-116 [16]): 19.7%
- Activity (HCT-116 [17]): 55%
- Activity (HCT-116 [18]): 3.78%
- Activity (HCT-116 [19]): 24%
- Activity (HCT-116 [20]): 81%
- Activity (HCT-116 [21]): 55.4%
- Activity (HCT-116 [22]): 97%
- Activity (HCT-116 [23]): Active
- viability at 2500 µM (HCT-116 [24]): 22.5%
- Activity (HCT-116 [25]): Active
- Activity (HCT-116 [26]): Active
- Activity (HCT-116 [27]): 19.8%
- Activity (HCT-116 [28]): 9%
- Activity (HCT-116 [29]): 27.2%
- Activity (HCT-116 [30]): 0.067%
- inhibition (HCT-116 [31]): Active
- Activity (HCT-116 [32]): 13.5%
- Activity (HCT-116 [33]): 0.065%
- Activity (HCT-116 [34]): 71.9%
- Activity (HCT-116 [35]): Time-dependent-effect
- Activity (HCT-116 [36]): 15.4%
- Activity (HCT-116 [37]): 9.8%
- Activity (HCT-116 [38]): Active
- Activity (HCT-116 [39]): 19.7%
- Activity (HCT-116 [40]): 68.6%
- Activity (HCT-116 [41]): 64%
- viability at 1250 µM (HCT-116 [42]): 27.6%
- Activity (HCT-116 [43]): 70.1%
- Activity (HCT-116 [44]): Active
- Activity (HCT-116 [45]): 0.048%
- Activity (HCT-116 [46]): Dose-dependent-effect
- Activity (HCT-116 [47]): 7.36%
- Activity (HCT-116 [48]): Active
- Activity (HCT-116 [49]): 48.3%

— ChEMBL document CHEMBL6178000, “Gut Microbial Metabolite 4-Ethylphenylsulfate Is Selectively Deleterious and Anticancer to Colon Cancer Cells” (J Med Chem, 2025)
